These are literature values, as cited in patent US20100212666A1 (priority 2006, published 2010).

The conditions of this data set: in vivo.

Take `CC(C)c1cccc(C(C)C)c1O` [propofol]: the “Effect on resting ventilation at 1 C50 for respiratory depression” value is “minimally depresses resting ventilation” and the “Sedation at 1 C50 for respiratory depression” value is recorded as “adequate sedation”.
